Data on two compounds can be found in patent US12448655B2, “Antibiotic susceptibility of microorganisms and related methods and systems” (CALIFORNIA INSTITUTE OF TECHNOLOGY, priority 2017, dated 2025).

Common to all, as to assay type: cell-based
The subject of experiment [1] is Neisseria gonorrhoeae. Briefly: AST by inaccessible DNA, 1 incubation step with Triton X-100 and DNaseI, qPCR (Example 1). Here is the method:
An antibiotic susceptibility test can be performed with methods herein described comprising 15-minute co-incubation of the sample with antibiotics and an enhancing treatment followed by cell lysis, and detection of differences in amounts of detected DNA between the antibiotic-susceptible and a corresponding control but not in antibiotic-resistant NG isolates with respect to a corresponding control.
For each isolate, two incubation tubes were prepared in 2 mL purple cap tubes (VWR Cat #89004-298), following the indication in table x below, titled “Antibiotic Exposure per 500 μL”. Add Triton X (enhancer), DNaseI (Cat: M0303L) (degrader), NaHCO3 (conditioner).
The antibiotic incubation/exposure was performed on a heat-shake block fit to 2 mL purple cap tubes (VWR Cat #89004-298). The particular shake-block was measured with a thermocouple to ensure the temperature inside the tubes with 500 μL of media is 37° C. (settings 38° C. and 1000 rpm shaking), qPCR was used for NA amplification
Extraction was performed following “DEB Extraction” description in the general methods using Eppendorf tubes. Vortex samples briefly (2 seconds) and centrifuge before transferring 10 μL of the sample to 90 μL of the extraction buffer. • 9. Optionally, continue incubation of the treated and untreated samples for a control of the antibiotic efficacy over >15 minute exposures
The “qPCR” description in the general methods was followed. All DEB-extracted DNA were quantified using a primer mix=(10 µM forward and reverse) targeting N. gonorrhoeae porA gene. Samples were run in qPCR triplicates (10 μL reactions) at an annealing temperature 62° C. The primers target the porA gene. • 11. Data analysis is performed on the raw cq measurements obtained from the qPCR instrument
Background: Real-time PCR tracks product formation cycle by cycle.

For experiment [2], the system named is Neisseria gonorrhoeae. As to the kind of experiment: AST by inaccessible DNA, 2 incubation steps (media; TRIS pH 8.5 enhancing buffer), qPCR (Example 3). The following applies: 30 min ABX exposure then 20 min TRIS pH 8.5 ± 1% Triton X-100. Here is the method:
Antibiotic susceptibility test was performed with methods herein described comprising 2 sequential incubation steps, and in particular • a primary incubation in which a sample is contacted with media, antibiotic (or water in untreated sample), and a nuclease (such as DNaseI), and optionally an enhancer (such as 1% Triton X-100); and • a secondary incubation in which a cell suspension from primary incubation is contacted with enhancers such as 50 mM TRIS buffer at pH 8.5 and/or 1% Triton X-100, possibly using dilution of the cell suspension from the antibiotic exposure by 90-95% (such as 50 μL into 450 μL, 25 μL into 475 μL) removing most antibiotic, culture media, and other components from the primary incubation for the enhancer condition.
The samples were mixed before transferring 25 μL or 50 μL of the sample to the prepared secondary incubation (enhancer) tubes. The charts in step 1 were followed to add the appropriate volume of cells to each tube. Mix the tubes and proceed to step 9 immediately
Extraction was performed following the “DEB Extraction” description in the general methods using Eppendorf tubes. […]
Detection of DNA was performed following the “qPCR” description in the general methods. Quantify all DEB-extracted DNA using the Primer mix=(10 μM forward and reverse) targeting N. gonorrhoeae porA gene. […]

The subject of experiment [3] is Neisseria gonorrhoeae. Briefly: Two-step nuc-aAST on Ng clinical urine samples and their isolates, TNP enhancer (Examples 35, 37). The following applies: antibiotic-resistant samples and isolates (Sample #3, #4); 1 μg/mL 30 min, then TNP 3-5 min, DNaseI. Here is the method:
Clinical sample nuc-aAST. Suspensions of clinical urine samples were prepared as described above. All suspensions were generated, and the ABX-exposure step initiated within 90 min of sample donation. The initial ABX-exposure was performed by incubating 50 μL control and treated samples at 37° C. in PCR tube strips on a BioRad C1000 Thermal Cycler. Treated samples consisted of […] of suspension and 1.25 μL aliquot of PEN or CRO (40 μg/mL). ABX were replaced with NF—H2O in control samples. After 30 min of incubation, samples were vortexed and quickly spun on a benchtop microcentrifuge (Labnet) at 2,000×g for 2-3 sec, and 2.7 μL TNP (100 mM) was added to each sample for the enhancement step. Samples were then immediately vortexed, spun on a benchtop microcentrifuge (Labnet) at 2,000×g for 2-3 sec, and incubated at 37° C. for 3-5 min. After the enhancement step, 20 μL from each sample was extracted by diluting 5× in QuickExtract DNA Extraction Solution (Lucigen) and heating for 6 min at 65° C. followed by 4 min at 98° C. on a BioRad C1000 Thermal Cycler. All sample handling following ABX exposure was performed using a multichannel pipette; qPCR and calculation of percentage accessibility were performed as previously described, with the modification that the qPCR mix included 2 μL of template per 10 μL PCR reaction instead of 1 μL template per 10 μL reaction. […]

On to `CO/N=C(\C(=O)N[C@@H]1C(=O)N2C(C(=O)O)=C(CSc3nc(=O)c(=O)[nH]n3C)CS[C@H]12)c1csc(N)n1` [CRO, ceftriaxone], for which the “Cqs of treated sample compared with control (no ABX)” value in the experiment on Neisseria gonorrhoeae [1] (ceftriaxone-resistant isolate ng_30, 15-minute incubation with 1% TritonX-100 and DNaseI) is on record as “not distinguishable from the control”. The “difference in relative concentrations (inaccessible DNA) control vs treated” value in the experiment with Neisseria gonorrhoeae [1] (ceftriaxone-susceptible isolate ng_3, 15-minute incubation with 1% TritonX-100 and DNaseI) was found to be 11 fold. Moreover, the “Cq difference between control and antibiotic-treated sample (FIG. 3 bars (a) and (b))” value in the experiment with Neisseria gonorrhoeae [1] (ceftriaxone-susceptible isolate ng_3, 15-minute incubation with 1% TritonX-100 and DNaseI in MH media) was found to be 3.5 Cq.

As to penicillin, the results for the “fold change (1/FC) of DNA between 30 and 50 minute measurements” value in the experiment on Neisseria gonorrhoeae [2] (resistant isolate (ng_44)) and in the experiment with Neisseria gonorrhoeae [2] (susceptible-treated samples (ng_17)) were “approximately 1.5” and over 5, respectively. The “mean percentage accessibility of DNA” value in the experiment on Neisseria gonorrhoeae [3] was under 46%.
